Test [1] deals with MRD offspring. Nature of the test: Three-chamber social test in MRD offspring. Format: in vivo, mice. The conditions noted are these: in drinking water. The method, then: Crawley's three-chamber test for sociability and preference for social novelty was performed as described (Silverman et al., 2010). In brief, the mouse first experienced a 10-minute period of habituation during which it was allowed to freely explore a 60×40×23 cm Plexiglass arena divided into three equally sized, interconnected chambers (Left, Center, Right). Sociability was measured during a second ten-minute period in which the subject could interact either with an empty wire cup (Empty) or a wire cup containing an age and sex-matched stranger conspecific (Mouse 1). Time spent interacting (sniffing, crawling upon) with either the empty cup or the stranger mouse contained in the other cup as well as time spent in each chamber was recorded using the AnyMaze software, by independent observers. Empty cup placement in the Left or Right chamber during the Sociability period was counterbalanced between trials. Finally, preference for social novelty was assayed by introducing a second stranger mouse (Mouse 2) into the previously the empty wire cup. Time spent in each chamber as well as time spent interacting with either Mouse 1 or Mouse 2 was recorded using the automated AnyMaze software by independent observers. Lactobacillus reuteri MM4-1A (ATCC-PTA-6475) and Lactobacillus johnsonii (ATCC 33200) were cultured anaerobically in MRS broth in a 90% N2, 5% CO2, 5% H2 environment. L. reuteri was heat-killed by keeping the bacteria at 80° C. for 20 minutes (Wang et al., 2010). Bacterial viability was assessed by plating and the efficacy of the heat-kill procedure was confirmed by the absence of colony growth following plating. Cultures were centrifuged, washed, and resuspended in anaerobic solution (PBS) and frozen at −80° C. until use. PBS, live or heat-killed L. reuteri were added to the drinking water, which was changed daily to minimize dosage variability. Whereas the experimental group received live bacteria, one control group received identically prepared cultures of heat-killed bacteria. A second group of control mice received water treated with PBS alone. […]

Test [2] has as its system GF mice. The test can be described thus: Three-chamber social test in germ-free mice treated with L. reuteri. The class given is in vivo. How it is done:
C57Bl6/J mice were obtained from Jackson Laboratories (#000-664) and were kept on a 12 h light/dark cycle and had access to food and water ad libitum. Females were placed on either a regular diet (RD) consisting of 13.4% kcal from fat, 30% kcal from protein, and 57% kcal from carbohydrates (Lab Diets, #5001) or high fat diet (HFD) consisting of 60% kcal from fat, 20% kcal from protein, and […] kcal from carbohydrates (Research Diets, #D12492). Maternal weight was measured weekly. Maternal total and fat mass were measured using an mq7.5 Minispec NMR body composition analyzer. After eight weeks on diet, females were paired with C57B16/J adult males to produce subject offspring. Resulting offspring were weaned at three weeks of age and all placed on RD, regardless of maternal diet (MRD or MHFD). Germ-free mice (C57B16/J) were maintained in a flexible isolator fed with HEPA-filtered air and provided with irradiated food and water. Germ-free offspring were weaned at four weeks of age. All behavioral tests were performed on 7-12-week-old male mice.
Crawley's three-chamber test for sociability and preference for social novelty was performed as described (Silverman et al., 2010). In brief, the mouse first experienced a 10-minute period of habituation during which it was allowed to freely explore a 60×40×23 cm Plexiglass arena divided into three equally sized, interconnected chambers (Left, Center, Right). Sociability was measured during a second ten-minute period in which the subject could interact either with an empty wire cup (Empty) or a wire cup containing an age and sex-matched stranger conspecific (Mouse 1). Time spent interacting (sniffing, crawling upon) with either the empty cup or the stranger mouse contained in the other cup as well as time spent in each chamber was recorded using the AnyMaze software, by independent observers. […] Time spent in each chamber as well as time spent interacting with either Mouse 1 or Mouse 2 was recorded using the automated AnyMaze software by independent observers. […]

“Lactobacillus reuteri MM4-1A (ATCC-PTA-6475) [L. reuteri]”: in test [1], the “sociability (chamber containing a mouse, FIG. 16A)” value is “preferred the chamber containing a mouse”; the social behavior result is on record as “did not change the social behavior”; the “social novelty (chamber containing Mouse 2, FIG. 16B)” value is listed as “preferred”. Further, in test [2] (L. reuteri in drinking water), the sociability entry is listed as “reverses the deficient sociability” and the social novelty result is given as “reverses”. Further, the social behavior deficits result in test [2] (L. reuteri treatment) is “sufficient to restore the social behavior deficits”.

Source of the values: patent US11135252B2, “Probiotic therapies for developmental disorders and other neurological disorders” (Baylor College of Medicine, priority 2016, dated 2021).
